# Laboratory results taken from patent US20210330611A1, “THERAPY FOR NEUROLOGICAL DISEASES/DISORDERS” (priority 2020, published 2021).
# Where a name gives a salt, the structure may show the parent alone. Read-outs that look alike come from different tables or passages of the source.
# Key:
# [1] = system: fibrin-induced microglia activation; assay: Image-based assay of fibrin-induced microglia activation (HTS and dose response); format: cell-based, rat; settings: for inhibition at 10 µM: Rattus norvegicus, Microglia, read-out: Fibrin % inhibition; for inhibition at 10 µM / Fibrin % inhibition: primary microglia HTS, fibrin stimulation
# [2] = system: LPS-induced microglia activation; assay: Image-based assay of LPS-induced microglia activation (HTS and dose response); format: cell-based, rat; settings: for inhibition at 10 µM: Rattus norvegicus, Microglia, read-out: LPS % inhibition; for inhibition at 10 µM / LPS % inhibition: primary microglia HTS, LPS stimulation
# [3] = system: fibrin- and LPS-induced microglia activation; assay: cells; format: cell-based, rat
# [4] = system: primary rat microglia; assay: Cell toxicity (dead cells, size <150 μm2) in LPS assay; settings: for LPS % cell toxicity: primary microglia HTS, LPS stimulation
# [5] = system: primary rat microglia; assay: Cell toxicity (dead cells, size <150 μm2) in coated fibrin (cFib) assay; settings: for Fibrin % cell toxicity: primary microglia HTS, fibrin stimulation;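 as to Fibrin % cell toxicity: share of dead cells sized under 150 µm2 at 10 µM in fibrin-stimulated microglia HTS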
# [6] = activation = cell size >800 μm2
# [7] = 48 h, activation = cell size >800 μm2
# [8] = quadrant by fibrin and LPS inhibition in HTS of 1907 compounds
# [9] = increased cell size (>800 μm^2) as marker of activation
# [10] = 48 h, increased cell size (>800 μm^2) as marker of activation
# [11] = decreased size (<150 μm^2) as marker of toxicity
SMILES,"inhibition at 10 µM [1, 6] [%]","inhibition at 10 µM [2, 7] [%]","Quadrant (FIG. 5b) [3, 8]",LPS % cell toxicity ([4]; toxicity = cell size <150 μm2) [%],Fibrin % cell toxicity ([5]; toxicity = cell size <150 μm2) [%],other results
CCN(CCO)CCCC(C)Nc1ccnc2cc(Cl)ccc12 (stereo not drawn) [Hydroxychloroquine],35,17,Q4,0,1,
CCCCCC(=O)O[C@]1(C(C)=O)CC[C@H]2[C@@H]3CCC4=CC(=O)CC[C@]4(C)[C@H]3CC[C@@]21C [Hydroxyprogesterone Caproate],22,25,Q4,0,1,
CC/C=C\C/C=C\C/C=C\C/C=C\C/C=C\CCCC(=O)OCC [Icosapent ethyl],-13,1,Q4,0,0,
O=C1C2CC3CC1CC(O)(C3)C2 [Idramantone],-7,8,Q4,0,1,
CC#CCC(C)[C@H](O)/C=C/[C@@H]1[C@H]2C/C(=C/CCCC(=O)O)C[C@H]2C[C@H]1O (stereo partly drawn) [Iloprost],23,-1,Q4,0,1,
N=C1NC(=O)N2CC12 (stereo not drawn) [Imexon],-3,12,Q4,1,1,
CC1Cc2ccccc2N1NC(=O)c1ccc(Cl)c(S(N)(=O)=O)c1 (stereo not drawn) [Indapamide],-14,11,Q4,0,0,
CC(C(=O)O)c1ccc(N2Cc3ccccc3C2=O)cc1 (stereo not drawn) [Indoprofen],-34,18,Q4,0,1,
O[C@H]1[C@H](O)[C@@H](O)[C@H](O)[C@@H](O)[C@H]1O [Inositol],-21,11,Q4,0,0,
CC(=O)NCc1c(I)c(NC(C)=O)c(I)c(C(=O)O)c1I [Iodamide],,,Q1,,,"inhibition at 10 µM [1, 9]: 41%; inhibition at 10 µM [2, 10]: 67%; LPS % cell toxicity [4, 11]: 1%; Fibrin % cell toxicity [5, 11]: 0%"
CC(=O)N(CC(O)CN(C(C)=O)c1c(I)c(C(=O)NCC(O)CO)c(I)c(C(=O)NCC(O)CO)c1I)c1c(I)c(C(=O)NCC(O)CO)c(I)c(C(=O)NCC(O)CO)c1I (stereo not drawn) [Iodixanol],-15,10,Q4,0,0,
C[C@H](O)C(=O)Nc1c(I)c(C(=O)NC(CO)CO)c(I)c(C(=O)NC(CO)CO)c1I [Iopamidol],-14,-4,Q4,0,1,
"CCC(Cc1c(I)cc(I)c(N)c1I)C(=O)O (stereo not drawn) [Iopanic acid, reference compound]",,,Q3,,,"Fibrin Selectivity [1]: 4; Fibrin Selectivity (LOG10) [1]: 0.58; IC50 ([1]; Table 1, dose response 0.001-20 μM, triplicates, primary rat microglia, 48 h, read-out: Fibrin IC50): 5 µM; IC50 ([1]; Table 3, read-out: Fibrin IC50 (uM) (Suppl. Table 7)): 5 µM; IC50 ([1]; dose response, fibrin-induced microglia activation, read-out: Fibrin IC50): 5 µM; Fibrin % inhibition [1, 9]: 51%; IC50 ([2]; Table 1, dose response 0.001-20 μM, triplicates, primary rat microglia, 48 h, read-out: LPS IC50): > 20 µM; IC50 ([2]; Table 3, read-out: LPS IC50 (uM) (Suppl. Table 7)): > 20 µM; IC50 ([2]; dose response, LPS-induced microglia activation, read-out: LPS IC50): > 20 µM; LPS % inhibition [2, 9]: 35%; Hit ([3]; HTS hit classification): HIT (Hits were defined as molecules that exhibited greater than 50% inhibition of either fibrin or LPS activation); Quadrant (FIG. 5b) ([3]; Table 1, screen at 10 μM): Q3; Cherry-picked Hit (Suppl. Table 7) ([3]; Table 3): HIT (Hits were defined as molecules that exhibited greater than 50% inhibition of either fibrin or LPS activation); Quadrant (FIG. 5b) ([3]; Table 3, screen at 10 μM): Q3; LPS % cell toxicity [4, 11]: 0%; IC50 ([4]; read-out: Cell Toxicity IC50 (uM) [LPS assay], Table 3): > 20 µM; Fibrin % cell toxicity [5, 11]: 1%; IC50 ([5]; read-out: Cell Toxicity IC50 (uM) [cFib assay], Table 3): > 20 µM"
CNC(=O)c1c(I)c(NC(C)=O)c(I)c(C(=O)O)c1I [Iothalamic Acid],5,7,Q4,0,1,
CC(=O)N(CC(O)CO)c1c(I)c(C(=O)NCCO)c(I)c(C(=O)NCC(O)CO)c1I (stereo not drawn) [Ioxilan],7,8,Q4,0,0,
CC(C)Oc1ccc2c(=O)c(-c3ccccc3)coc2c1 [Ipriflavone],-29,7,Q4,0,1,

SMILES,"inhibition at 10 µM [1, 6] [%]","inhibition at 10 µM [2, 7] [%]","Quadrant (FIG. 5b) [3, 8]",LPS % cell toxicity ([4]; toxicity = cell size <150 μm2) [%],Fibrin % cell toxicity ([5]; toxicity = cell size <150 μm2) [%],other results
CC(C)CCCC(C)NC(C)C (stereo not drawn) [Iproheptine],-34,11,Q4,0,1,
Nc1nc(N)nc(-c2cc(Cl)ccc2Cl)n1 [Irsogladine Maleate],-27,14,Q4,0,1,
CC(C)Nc1ncccn1 [Isaxonine],-46,-1,Q4,0,0,
CC(C)COC(=O)c1ccc(N)cc1 [Isobutamben],-5,-1,Q4,0,1,
CCC(NC(C)C)C(O)c1ccc(O)c(O)c1 (stereo not drawn) [Isoetarine],21,23,Q4,0,1,
CC(=O)OCC(=O)[C@@]1(O)CC[C@H]2[C@@H]3CCC4=CC(=O)C=C[C@]4(C)[C@@]3(F)[C@@H](O)C[C@@]21C [Isoflupredone Acetate],,,Q2,,,"inhibition at 10 µM [1, 9]: 106%; inhibition at 10 µM [2, 10]: 90%; LPS % cell toxicity [4, 11]: 2%; Fibrin % cell toxicity [5, 11]: 3%"
NNC(=O)c1ccncc1 [Isoniazid],-29,19,Q4,0,1,
CC(C)[N+](C)(CCC(C(N)=O)(c1ccccc1)c1ccccc1)C(C)C [Isopropamide],19,24,Q4,0,0,
O=[N+]([O-])O[C@@H]1CO[C@H]2[C@@H]1OC[C@@H]2O [Isosorbide Mononitrate],-17,15,Q4,1,0,
CC(C)CC(N)=O [Isovaleramide],-10,1,Q4,0,1,
CC(COc1ccccc1)NC(C)C(O)c1ccc(O)cc1 (stereo not drawn) [Isoxsuprine Hydrochloride],-13,23,Q4,0,0,
COC(=O)C1=C(C)NC(C)=C(C(=O)OC(C)C)C1c1cccc2nonc12 (stereo not drawn) [Isradipine],9,2,Q4,0,1,
"COc1ccc(C(=O)NCc2ccc(OCCN(C)C)cc2)cc1OC [Itopride, Itopride Hydrochloride]",,,Q4,0,0,"Fibrin % inhibition [1, 6]: −49%; LPS % inhibition [2, 6]: 25%"
C=C(C)[C@H]1CN[C@H](C(=O)O)[C@H]1CC(=O)O [Kainic Acid],-77,14,Q4,0,0,
CNC1(c2ccccc2Cl)CCCCC1=O (stereo not drawn) [Ketamine],-86,-2,Q4,0,1,
O=C(c1ccc(F)cc1)C1CCN(CCn2c(=O)[nH]c3ccccc3c2=O)CC1 [Ketanserin Tartrate],17,15,Q4,0,1,
